This passage reports EC50 and ED50 results from patent US10792282B2, “Protein kinase C inhibitors and uses thereof” (Rigel Pharmaceuticals, Inc., priority 2013, dated 2020).

Read-outs that look alike come from different tables or passages of the source.

In test [1] the test system is PKC mediated IL-2 production. In words: IL-2 ELISA, human primary T cell, anti CD3+CD28+ (whole cell functional assay). In kind it is cell-based. A digest of the protocol:
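Anti-CD3/CD28-expanded human primary T cells (100,000/well), pre-incubated 1 h at 37° C with compound, then stimulated on plates coated with 1 μg/ml αCD3 and 5 μg/ml αCD28. Counter assay used 0.5 ng/ml PMA plus 0.1 μM ionomycin (final). Supernatant IL-2 measured by ELISA after 24 h.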
(In an ELISA, binding on a coated surface is turned into a signal by an enzyme label.)

The test system of test [2] is PLP induced experimental autoimmune encephalomyelitis (EAE). In words: PLP induced experimental autoimmune encephalomyelitis (EAE) model in SJL mice. In kind it is in vivo. The settings on record: Mus musculus, both pretreatment and treatment dosing. From the text: EAE is a useful model for multiple sclerosis (MS), an autoimmune disease of the CNS that is caused by immune-cell infiltration of the CNS white matter. Inflammation and subsequent destruction of myelin cause progressive paralysis. Like the human disease, EAE is associated with peripheral activation of T cells autoreactive with myelin proteins, such as myelin basic protein (MBP), proteolipid protein (PLP), or myelin oligodendrocyte protein (MOG). Activated neuroantigen-specific T cells pass the blood-brain barrier, leading to focal mononuclear cell infiltration and demyelination. EAE can be induced in susceptible mouse strains by immunization with myelin-specific proteins in combination with adjuvant. In the SJL mouse model used in these studies, hind limb and tail paralysis is apparent by Day 10 after immunization, the peak of disease severity can be observed between Days 10 and 14, and a cycle of partial spontaneous remission followed by relapse can be observed up to Day 35.
In the SJL murine model of EAE, each mouse is sensitized with PLP/CFA. (150 μg PLP139-151 with 200 μg CFA in 0.05 ml of homogenate on four sites of hind flank for a total of 0.2 ml emulsion is used to induce EAE). […] In both protocols, clinical scores are monitored daily, and body weights are measured twice weekly. […]

[3] abbreviates: Homo sapiens, T-cell, 24 h, IL-2 production, human primary T cells stimulated with αCD3 and αCD28, 24 hours, IL-2 by ELISA, read-out: EC50.
The mark [4] stands for this setting: Homo sapiens, T-cell, human primary T cells stimulated with αCD3 and αCD28, IL-2 by ELISA, read-out: EC50 (blocked IL-2 production).
[5] abbreviates: IL-2 production, human primary T cells stimulated with αCD3 and αCD28, 24 hours, IL-2 by ELISA, read-out: EC50.
Setting [6] is: T-cell, human primary T cells stimulated with αCD3 and αCD28, IL-2 by ELISA, read-out: EC50 (blocked IL-2 production).

Regarding `Cn1nnn(-c2cc(Nc3ncc(F)c(N[C@@H]4C[C@@H]5CCCN5C(C)(C)C4)n3)c(F)cc2C2CC2)c1=O` [Compound 17, 1-(5-(4-((7R,8aS)-octahydro-5,5-dimethylindolizin-7ylamino)-5-fluoropyrimidin-2-yl-amino)-2-cyclopropyl-4-fluorophenyl)-4-methyl-1H-tetrazol-5(4H)-one], the concentration for a half-maximal effect (EC50) in test [1] (setting [3]) was less than 100 nM; in test [1] (setting [4]) it was less than 10000 nM. The ED50 in test [2] was determined as 30 mg/kg.
Take `Cn1nnn(-c2cc(Nc3ncc(F)c(NC4CC5CCCN5C(C)(C)C4)n3)ccc2OC2COC2)c1=O` (single isomer, unassigned) [Compound 39, 1-(5-(5-fluoro-4-(octahydro-5,5-dimethylindolizin-7-ylamino)pyrimidin-2-ylamino)-2-(oxetan-3-yloxy)phenyl)-4-methyl-1H-tetrazol-5(4H)-one]: the concentration giving a half-maximal response (EC50) in test [1] (setting [4]) was less than 10000 nM; in test [1] (setting [5]), less than 500 nM.
Take `Cc1ncc(Nc2ncc(F)c(NC3CC4CCCN4C(C)(C)C3)n2)cc1-n1nnnc1C` (stereo not drawn) [Compound 15]: in test [1] (setting [5]), the concentration giving a half-maximal response (EC50) was less than 500 nM.
With `CC1(C)CC(Nc2nc(Nc3cc(-n4cnnn4)c(C4CC4)cc3F)ncc2F)CC2CCCN21` (racemic) [Compound 55, (±)-N2-(4-cyclopropyl-2-fluoro-5-(1H-tetrazol-1-yl)phenyl)-5-fluoro-n^4-(octahydro-5,5-dimethylindolizin-7-yl)pyrimidine-2,4-diamine], in test [1] (setting [5]), the EC50 was less than 500 nM.
`Cn1nnn(-c2cc(Nc3ncc(F)c(N[C@@H]4C[C@@H]5C[C@@H](F)CN5C(C)(C)C4)n3)c(F)cc2C2CC2)c1=O` [Compound 64, 1-(5-(4-((2R,7R,8aR)-2-fluoro-octahydro-5,5-dimethylindolizin-7-ylamino)-5-fluoropyrimidin-2-ylamino)-2-cyclopropyl-4-fluorophenyl)-4-methyl-1H-tetrazol-5(4H)-one]: the EC50 is less than 500 nM in test [1] (setting [3]) and less than 10000 nM in test [1] (setting [4]).
On the same counts, the results for `Cn1nnn(-c2cc(Nc3ncc(F)c(N[C@@H]4C[C@@H]5CCCN5C(C)(C)C4)n3)c(F)cc2OC(C)(C)CO)c1=O` [Compound 85, 1-(2-(1-hydroxy-2-methylpropan-2-yloxy)-5-(4-((7R,8aS)-octahydro-5,5-dimethylindolizin-7-ylamino)-5-fluoropyrimidin-2-ylamino)-4-fluorophenyl)-4-methyl-1H-tetrazol-5(4H)-one] are less than 500 nM and less than 10000 nM.
As for `Cn1nnn(-c2cc(Nc3ncc(C#N)c(NC4CC5CCCN5C(C)(C)C4)n3)c(F)cc2C2CC2)c1=O` (stereo not drawn) [Compound 66, 4-((R/S,S/R)-Octahydro-5,5-dimethylindolizin-7-ylamino)-2-(4-cyclopropyl-2-fluoro-5-(4,5-dihydro-4-methyl-5-oxotetrazol-yl)phenylamino) pyrimidine-5-carbonitrile], the EC50 in test [1] (setting [5]) is less than 100 nM.
Turning to `CC1(C)CC(Nc2nc(Nc3ccc(OC4CCOCC4)c(C#N)c3)ncc2F)CC2CCCN21` (single isomer, unassigned) [Compound 41, 5-(5-fluoro-4-(octahydro-5,5-dimethylindolizin-7-ylamino)pyrimidin-2-ylamino)-2-(tetrahydro-2H-pyran-4-yloxy)benzonitrile], the EC50 was less than 500 nM in test [1] (setting [3]) and less than 10000 nM in test [1] (setting [4]).
Take `Cn1nnn(-c2cc(Nc3ncc(F)c(N[C@@H]4C[C@@H]5C[C@@H](O)CN5C(C)(C)C4)n3)c(F)cc2C2CC2)c1=O` [Compound 68, 1-(5-(4-((2R,7R,8aR)-2-hydroxy-octahydro-5,5-dimethylindolizin-7-ylamino)-5-fluoropyrimidin-2-ylamino)-2-cyclopropyl-4-fluorophenyl)-4-methyl-1H-tetrazol-5(4H)-one]: the 50% effective concentration (EC50) in test [1] (setting [3]) is less than 500 nM; in test [1] (setting [4]) it was less than 10000 nM.
On to `CC(C)N1CCC(Oc2ccc(Nc3ncc(F)c(NC4CC5CCCN5C(C)(C)C4)n3)cc2OC(F)F)CC1` (stereo not drawn) [Compound 8, (R/S, S/R, R/R, S/S)—N^2-(4-(1-isopropylpiperidin-4-yloxy)-3-(difluoromethoxy)phenyl)-5-fluoro-N^4-(octahydro-5,5-dimethylindolizin-7-yl)pyrimidine-2,4-diamine], for which the 50% effective concentration (EC50) in test [1] (setting [5]) is less than 1000 nM.
As for `CC(C)Oc1cc(F)c(Nc2ncc(F)c(N[C@@H]3C[C@@H]4CCCN4C(C)(C)C3)n2)cc1-n1nnn(C)c1=O` [Compound 23, 1-(5-(4-((7R,8aS)-5,5-dimethyl-octahydroindolizin-7-ylamino)-5-fluoropyrimidin-2-ylamino)-4-fluoro-2-isopropoxyphenyl)-4-methyl-1H-tetrazol-5(4H)-one], the EC50 is less than 100 nM in test [1] (setting [3]) and less than 10000 nM in test [1] (setting [4]).
For `Cn1nnn(-c2cc(Nc3ncc(F)c(N[C@@H]4C[C@@H]5CCCN5C(C)(C)C4)n3)c(F)cc2OCCO)c1=O` [Compound 77, 1-(2-(2-hydroxyethoxy)-5-(4-((7R,8aS)-octahydro-5,5-dimethylindolizin-7-ylamino)-5-fluoropyrimidin-2-ylamino)-4-fluorophenyl)-4-methyl-1H-tetrazol-5(4H)-one], the concentration for a half-maximal effect (EC50) in test [1] (setting [6]) was less than 10000 nM.
With `CC(C)N1CCC(Oc2ccc(Nc3ncc(F)c(NC4CC5CCCN5C(C)(C)C4)n3)cc2OC(F)F)CC1` (stereo not drawn) [Compound 6, (R/S, S/R, R/R, S/S)—N^2-(4-(1-isopropylpiperidin-4-yloxy)-3-(difluoromethoxy)phenyl)-5-fluoro-N^4-(octahydro-5,5-dimethylindolizin-7-yl)pyrimidine-2,4-diamine], the EC50 in test [1] (setting [5]) is less than 500 nM.
With `CC1(C)Oc2ccc(Nc3ncc(F)c(NC4CC5CCCN5C(C)(C)C4)n3)cc2-n2nnnc21` (stereo not drawn) [Compound 4, N2-(4,4-dimethyl-4H-benzo[b]tetrazolo[1,5-d][1,4]oxazin-8-yl)-5-fluoro-N4-(octahydro-5,5-dimethylindolizin-7-amine)pyrimidine-2,4-diamine], the EC50 in test [1] (setting [5]) was less than 10000 nM.
For `CC(=O)N(C)c1cc(Nc2ncc(F)c(NC3CC(C)(C)N4CCCC4C3C)n2)c(F)cc1C1CC1` (stereo not drawn) [Compound 73], the EC50 in test [1] (setting [5]) was less than 500 nM.
As to `CC1(C)C[C@H](Nc2nc(Nc3cc(-n4cnnn4)c(C4CC4)cc3F)ncc2C#N)C[C@@H]2CCCN21` (racemic) [Compound 56, (±)-2-(4-cyclopropyl-2-fluoro-5-(1H-tetrazol-1-yl)phenylamino)-4-(octahydro-5,5-dimethylindolizin-7-ylamino)pyrimidine-5-carbonitrile], the results for the EC50 in test [1] (setting [3]) and in test [1] (setting [4]) were less than 100 nM and less than 10000 nM, respectively.
In the case of `C[C@@H](O)COc1cc(F)c(Nc2ncc(F)c(N[C@@H]3C[C@@H]4CCCN4C(C)(C)C3)n2)cc1-n1nnn(C)c1=O` [Compound 82, 1-(5-(4-((7R,8aS)-5,5-dimethyloctahydroindolizin-7-ylamino)-5-fluoropyrimidin-2-ylamino)-4-fluoro-2-((R)-2-hydroxypropoxy)phenyl)-4-methyl-1H-tetrazol-5(4H)-one], the EC50 in test [1] (T-cell, IL-2 production, human primary T cells stimulated with αCD3 and αCD28, 24 hours, IL-2 by ELISA, read-out: EC50) is less than 100 nM; in test [1] (setting [6]), less than 10000 nM.
Take `COc1cc(Nc2ncc(F)c(NC3CC4CCCN4C(C)(C)C3)n2)cc(-n2nnnc2C)c1` (stereo not drawn) [Compound 11, (R/S, S/R, R/R, S/S)-5-fluoro-N4-(octahydro-5,5-dimethylindolizin-7-yl)N2-(3-methoxy-5-(5-methyl-1H-tetrazol-1-yl)phenyl)pyrimidine-2,4-diamine]: the EC50 in test [1] (setting [5]) was less than 10000 nM.
Take `CC1(C)C[C@H](Nc2nc(Nc3cc(-n4cnnn4)c(C4CC4)cc3F)ncc2F)C[C@@H]2CC(F)(F)CN21` [Compound 46, N^2-(4-cyclopropyl-2-fluoro-5-(1H-tetrazol-1-yl)phenyl)-5-fluoro-N^4-((7R,8aR)-2,2-difluoro-octahydro-5,5-dimethylindolizin-7-yl)pyrimidine-2,4-diamine]: the 50% effective concentration (EC50) is less than 1000 nM in test [1] (setting [3]) and less than 10000 nM in test [1] (setting [4]).

Usually EC50 stands for the concentration at which the effect is half-maximal. In general, ED50 refers to the dose that gives a 50% effect, or the effect in half of the subjects.
